From patent publication US12686690B2, “Macrocyclic urea orexin receptor agonists” (Merck Sharp & Dohme LLC, priority 2020, dated 2026) come the findings set out here.

Structures are written as SMILES.

The assay addresses T1, hOX2R (Homo sapiens, UniProt O43614).
T1 construct: expressed in transfected cells; host or cells: CHO cells (G418 selection)
T1 sequence (O43614 1-444): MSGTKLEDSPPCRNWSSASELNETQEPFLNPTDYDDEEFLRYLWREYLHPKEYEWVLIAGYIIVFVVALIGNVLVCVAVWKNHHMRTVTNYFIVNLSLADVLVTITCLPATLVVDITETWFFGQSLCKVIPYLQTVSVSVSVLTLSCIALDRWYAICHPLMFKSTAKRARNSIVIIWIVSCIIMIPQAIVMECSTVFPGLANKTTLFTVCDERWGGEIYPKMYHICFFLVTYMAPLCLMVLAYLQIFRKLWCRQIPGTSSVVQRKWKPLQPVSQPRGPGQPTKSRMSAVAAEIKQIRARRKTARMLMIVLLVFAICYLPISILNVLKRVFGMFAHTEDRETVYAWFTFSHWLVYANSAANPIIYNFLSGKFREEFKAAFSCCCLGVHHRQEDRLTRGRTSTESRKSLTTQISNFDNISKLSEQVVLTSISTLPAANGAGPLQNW
Put plainly: hOX2R IPone assay (orexin receptor agonism). The format is cell-based. The following applies: IPone readout; for hOX2R_Ipone max %act: maximal activation; for EC50: orexin receptor agonist, read-out: hOX2R_IPone EC50.

Broadly, the EC50 is the concentration needed to bring the measured effect to its halfway point. Regarding `CCN1C(=O)NCCCN2CCCC2COc2nc(cn3ccnc23)-c2cccc(c2)[C@H]1C` (mixture of isomers) [Example 4, (12R)-13-ethyl-12-methyl-12,13,15,16,17,18,21,22,22a, 23-decahydro-14H,20H-6,25-(azeno)-11,7-(metheno)imidazo[1,2-s]pyrrolo[2,1-c][1,4,8,10,19]oxatetraaza-cyclohenicosin-14-one], the hOX2R_Ipone max %act stood at 79.4% and the EC50 turned out to be 3840 nM.

Turning to `CCN1C(=O)NCCN2CCCC(C2)Oc2nc(cn3ccnc23)-c2cccc(c2)[C@H]1C` (mixture of isomers) [Example 5, (7R)-8-ethyl-7-methyl-18-oxa-8,10,13,21,24,26-hexaazapentacyclo[17.6.1.1~ 2,6~.1~13,17~.0~20,24~] octacosa-1(25),2(28),3,5,19(26),20,22-heptaen-9-one (non-preferred name)], the hOX2R_Ipone max %act was determined as 93.82% and the EC50 worked out at 1380 nM.

Turning to `CCN1C(=O)NCCN(C)CCC(C)Oc2nc(cn3ccnc23)-c2cccc(c2)[C@H]1C` (mixture of isomers) [Example 16, (12R)-13-ethyl-12,18,21-trimethyl-12,13, 16,17,18,19,20,21-octahydro-6,23-(azeno)-11,7-(metheno) imidazo[2,1-c][1,4,13,15,18]oxa-tetraazacyclo-henicosin-14(15H)-one], the hOX2R_Ipone max %act stood at 77.7% and the EC50 worked out at 3880 nM.

`CCN1C(=O)NC(C)CCCCCOc2nc(cn3ccnc23)-c2cccc(c2)[C@H]1C` (mixture of isomers) [Example 18, (12R)-13-ethyl-12,16-dimethyl-12,13,16,17,18,19, 20,21-octahydro-6,23-(azeno)-11,7-(metheno) imidazo[2,1-c][1,4,13,15]oxatriaza-cyclohenicosin-14(15H)-one]: the hOX2R_Ipone max %act came to 98.6% and the EC50 was 26.6 nM.

Regarding `CCN1C(=O)NC(c2ccon2)CCCCCOc2nc(cn3ccnc23)-c2cccc(c2)[C@H]1C` (mixture of isomers) [Example 20, (12R)-13-ethyl-12-methyl-16-(1,2-oxazol-3-yl)-12,13,16,17,18,19, 20,21-octahydro-6,23-(azeno)-11,7-(metheno) imidazo[2,1-c][1,4,13,15]oxa-triazacyclohenicosin-14(15H)-one], the hOX2R_Ipone max %act was 98.31% and the EC50 turned out to be 9.5 nM.

Regarding `CCN1C(=O)NC(COCC(F)F)CCCCCOc2nc(cn3ccnc23)-c2cc(ncc2OC)[C@H]1C` (mixture of isomers) [Example 190, (3R,E)-7-((2,2-difluoroethoxy)methyl)-4-ethyl-25-methoxy-3-methyl-13-oxa-4,6-diaza-1(6,8)-imidazo[1,2-a]pyrazina-2(4,2)-pyridinacyclotridecaphan-5-one], the hOX2R_Ipone max %act is reported as 101.7% and the EC50 is 0.61 nM.

With `CCN1C(=O)N[C@@H](CCC(F)(F)F)CCCCCOc2cc(cc3ccnn23)-n2nc(cc2C2CC2)C1C` (mixture of isomers) [Example 210, (16E,22E,7R)-25-cyclopropyl-4-ethyl-3-methyl-7-(3,3,3-trifluoropropyl)-21H-13-oxa-4,6-diaza-1(5,7)-pyrazolo[1,5-a]pyridina-2(1,3)-pyrazolacyclotridecaphan-5-one], the hOX2R_Ipone max %act came to 102.8% and the EC50 was 5.24 nM.

On to `CCN1C(=O)NC2CN(CCCOc3nc(cn4ccnc34)-c3cccc(c3)[C@H]1C)CC2(F)F` (mixture of isomers) [Example 213, (3R,E)-4-ethyl-7^4,7^4-difluoro-3-methyl-11-oxa-4,6-diaza-1(6,8)-imidazo[1,2-a]pyrazina-7(3,1)-pyrrolidina-2(1,3)-benzenacycloundecaphan-5-one], for which the hOX2R_Ipone max %act stood at 101.8% and the EC50 stood at 6.44 nM.

Turning to `CCN1C(=O)NCCC2CCC(C2)Oc2nc(cn3ccnc23)-c2cccc(c2)[C@H]1C` (single isomer, unassigned) [Example 1A], the hOX2R_Ipone max %act was 92.5% and the EC50 worked out at 1050 nM.

For the molecule `CCN1C(=O)NC(CCC(F)(F)F)CCOCCOc2nc(cn3ccnc23)-c2cc(ncc2OC)[C@H]1C` (single isomer, unassigned) [Example 6A], the hOX2R_Ipone max %act turned out to be 103.5% and the EC50 came out at 11.9 nM.

In the case of `CCN1C(=O)NC(CCC(F)(F)F)CCOCCOc2nc(cn3ccnc23)-c2cc(ncc2OC)[C@H]1C` (single isomer, unassigned) [Example 6B], the hOX2R_Ipone max %act is on record as 101.5% and the EC50 is 0.6 nM.

With `CCN1C(=O)NC(C)CCCCCOc2nc(cn3ccnc23)-c2cc(ncc2OC)[C@H]1C` (single isomer, unassigned) [Example 9A], the hOX2R_Ipone max %act was found to be 99.27% and the EC50 came to 416 nM.

Regarding `CCN1C(=O)NC(C)CCCCCOc2nc(cn3ccnc23)-c2cc(ncc2OC)[C@H]1C` (single isomer, unassigned) [Example 9B], the hOX2R_Ipone max %act stood at 100.9% and the EC50 stood at 6 nM.

For `CCN1C(=O)NC(c2cscn2)CCCCCOc2nc(cn3ccnc23)-c2cccc(c2)[C@H]1C` (single isomer, unassigned) [Example 19A], the hOX2R_Ipone max %act was found to be 97.1% and the EC50 worked out at 337 nM.

With `CCN1C(=O)NC(c2cscn2)CCCCCOc2nc(cn3ccnc23)-c2cccc(c2)[C@H]1C` (single isomer, unassigned) [Example 19B], the hOX2R_Ipone max %act was 94.4% and the EC50 was determined as 6.6 nM.

Consider `CCN1C(=O)NC(CCC(F)(F)F)COCCCOc2nc(cn3ccnc23)-c2cc(ncc2OC)[C@H]1C` (single isomer, unassigned) [Example 21A], for which the hOX2R_Ipone max %act turned out to be 100.4% and the EC50 worked out at 19.6 nM.

As for `CCN1C(=O)NC(CCC(F)(F)F)COCCCOc2nc(cn3ccnc23)-c2cc(ncc2OC)[C@H]1C` (single isomer, unassigned) [Example 21B], the hOX2R_Ipone max %act stood at 100.3% and the EC50 came out at 0.5 nM.

Turning to `CCN1C(=O)NCC(C(F)(F)F)N(C)CCOc2nc(cn3ccnc23)-c2cccc(c2)[C@H]1C` (single isomer, unassigned) [Example 25A], the hOX2R_Ipone max %act was determined as 96.6% and the EC50 amounted to 250 nM.

In the case of `CCN1C(=O)NCC(C(F)(F)F)N(C)CCOc2nc(cn3ccnc23)-c2cccc(c2)[C@H]1C` (single isomer, unassigned) [Example 25B], the hOX2R_Ipone max %act is listed as 97.81% and the EC50 was found to be 173 nM.

Turning to `CCN1C(=O)N[C@@H](CCC(F)(F)F)CCCCOc2nc(cn3ncnc23)-c2cc(ncc2OC)C1C(F)(F)F` (single isomer, unassigned) [Example 34A], the hOX2R_Ipone max %act was determined as 99.9% and the EC50 came to 541 nM.

Take `CCN1C(=O)N[C@@H](CCC(F)(F)F)CCCCOc2nc(cn3ncnc23)-c2cc(ncc2OC)C1C(F)(F)F` (single isomer, unassigned) [Example 34B]: the hOX2R_Ipone max %act stood at 101.1% and the EC50 worked out at 16.4 nM.

Take `CCN1C(=O)N[C@@H](CCC(F)(F)F)CCCCOc2nc(cn3cc(C)nc23)-c2cc(ncc2OC)C1C(F)(F)F` (single isomer, unassigned) [Example 36A]: the hOX2R_Ipone max %act worked out at 101% and the EC50 was 64 nM.
